Reference: the NIST ThermoML archive (doi:10.1021/acs.jced.7b00347)

Experiment: mn = molality of the nth substance listed, in mol/kg
Details: for surface tension liquid-gas: Ring tensiometer; for electrical conductivity: 100 kPa, Liquid, Alternating current cell with electrodes

CCCCCCCCCCCCCCCC[NH+](CCO)CC(C)O.[Cl-] (configuration not stated) + O
Details	electrical conductivity [S/m]	surface tension liquid-gas [mN/m]
293.15 K, m1 = 1.052e-05	–	59.82
293.15 K, m1 = 1.579e-05	–	56.69
293.15 K, m1 = 2.631e-05	–	52.01
293.15 K, m1 = 5.263e-05	–	45.56
293.15 K, m1 = 0.0001052	–	39.23
293.15 K, m1 = 0.0001263	0.000446	–
293.15 K, m1 = 0.0001316	0.000471	–
293.15 K, m1 = 0.0001368	0.000496	–
293.15 K, m1 = 0.0001421	0.000522	–
293.15 K, m1 = 0.0001473	0.000548	–
293.15 K, m1 = 0.0001526	0.000573	–
293.15 K, m1 = 0.0001579	0.000595	35.88
293.15 K, m1 = 0.000171	0.00061	–
293.15 K, m1 = 0.0001842	0.000621	–
293.15 K, m1 = 0.0001973	0.000633	–
293.15 K, m1 = 0.0002105	0.000644	34.88
293.15 K, m1 = 0.0002236	0.000655	–
293.15 K, m1 = 0.0002368	0.000667	–
293.15 K, m1 = 0.00025	0.000678	–
293.15 K, m1 = 0.0002631	0.000689	34.06
293.15 K, m1 = 0.0002763	0.000701	–
293.15 K, m1 = 0.0002894	0.000712	–
293.15 K, m1 = 0.0003026	0.000723	–
293.15 K, m1 = 0.0003157	0.000737	–
293.15 K, m1 = 0.0005262	–	32.43
293.15 K, m1 = 0.001053	–	31.43
293.15 K, m1 = 0.001579	–	31.07
298.15 K, m1 = 7.893e-06	–	56.32
298.15 K, m1 = 1.052e-05	–	54.11
298.15 K, m1 = 1.579e-05	–	50.72
298.15 K, m1 = 2.631e-05	–	46.33
298.15 K, m1 = 5.263e-05	–	40.82
298.15 K, m1 = 9.47e-05	0.000409	–
298.15 K, m1 = 0.0001016	0.000433	–
298.15 K, m1 = 0.0001052	–	35.11
298.15 K, m1 = 0.0001085	0.000458	–
298.15 K, m1 = 0.0001154	0.000482	–
298.15 K, m1 = 0.0001223	0.000507	–
298.15 K, m1 = 0.0001293	0.000531	–
298.15 K, m1 = 0.0001362	0.000556	–
298.15 K, m1 = 0.0001431	0.000581	–
298.15 K, m1 = 0.00015	0.000606	32.52
298.15 K, m1 = 0.0001618	0.000621	–
298.15 K, m1 = 0.0001737	0.000637	–
298.15 K, m1 = 0.0001855	0.000653	–
298.15 K, m1 = 0.0001973	0.000669	–
298.15 K, m1 = 0.0002092	0.000684	–
298.15 K, m1 = 0.0002105	–	31.91
298.15 K, m1 = 0.000221	0.0007	–
298.15 K, m1 = 0.0002329	0.000716	–
298.15 K, m1 = 0.0002447	0.000732	–
298.15 K, m1 = 0.0002565	0.000748	–
298.15 K, m1 = 0.0002631	–	31.41
298.15 K, m1 = 0.0002684	0.000764	–
298.15 K, m1 = 0.0002802	0.00078	–
298.15 K, m1 = 0.0002921	0.000796	–
298.15 K, m1 = 0.0003039	0.000811	–
298.15 K, m1 = 0.0003157	0.000829	–
298.15 K, m1 = 0.0005262	–	30.8
298.15 K, m1 = 0.001053	–	30.03
298.15 K, m1 = 0.001579	–	29.71
303.15 K, m1 = 6.578e-06	–	52.23
303.15 K, m1 = 7.893e-06	–	50.81
303.15 K, m1 = 1.052e-05	–	48.55
303.15 K, m1 = 1.579e-05	–	45.89
303.15 K, m1 = 2.631e-05	–	42.23
303.15 K, m1 = 5.263e-05	–	37.06
303.15 K, m1 = 9.47e-05	0.000467	–
303.15 K, m1 = 9.9e-05	0.000486	–
303.15 K, m1 = 0.0001033	0.000505	–
303.15 K, m1 = 0.0001052	–	32.07
303.15 K, m1 = 0.0001075	0.000524	–
303.15 K, m1 = 0.0001118	0.000544	–
303.15 K, m1 = 0.0001161	0.000563	–
303.15 K, m1 = 0.0001204	0.000582	–
303.15 K, m1 = 0.0001247	0.000601	–
303.15 K, m1 = 0.0001289	0.000621	–
303.15 K, m1 = 0.0001315	–	31.01
303.15 K, m1 = 0.0001423	0.000643	–
303.15 K, m1 = 0.0001556	0.000666	–
303.15 K, m1 = 0.0001579	–	30.51
303.15 K, m1 = 0.000169	0.000689	–
303.15 K, m1 = 0.0001823	0.000712	–
303.15 K, m1 = 0.0001956	0.000735	–
303.15 K, m1 = 0.000209	0.000757	–
303.15 K, m1 = 0.0002105	–	30.45
303.15 K, m1 = 0.0002223	0.00078	–
303.15 K, m1 = 0.0002357	0.000803	–
303.15 K, m1 = 0.000249	0.000826	–
303.15 K, m1 = 0.0002624	0.000849	–
303.15 K, m1 = 0.0002631	–	30.43
303.15 K, m1 = 0.0002757	0.000872	–
303.15 K, m1 = 0.0002891	0.000895	–
303.15 K, m1 = 0.0003024	0.000918	–
303.15 K, m1 = 0.0003157	0.000944	–
303.15 K, m1 = 0.0005262	–	29.89
303.15 K, m1 = 0.001053	–	29.16
303.15 K, m1 = 0.001579	–	28.81
308.15 K, m1 = 4.604e-06	–	52.01
308.15 K, m1 = 7.893e-06	–	48.13
308.15 K, m1 = 1.052e-05	–	46
308.15 K, m1 = 1.579e-05	–	43.23
308.15 K, m1 = 2.631e-05	–	39.78
308.15 K, m1 = 5.263e-05	–	35.06
308.15 K, m1 = 7.37e-05	0.000445	–
308.15 K, m1 = 8.04e-05	0.000472	–
308.15 K, m1 = 8.72e-05	0.0005	–
308.15 K, m1 = 9.4e-05	0.000528	–
308.15 K, m1 = 0.0001007	0.000556	–
308.15 K, m1 = 0.0001075	0.000583	–
308.15 K, m1 = 0.0001143	0.000611	–
308.15 K, m1 = 0.000121	0.00064	29.71
308.15 K, m1 = 0.00013	0.000659	–
308.15 K, m1 = 0.0001389	0.000679	–
308.15 K, m1 = 0.0001479	0.000699	–
308.15 K, m1 = 0.0001568	0.000719	–
308.15 K, m1 = 0.0001579	–	29.44
308.15 K, m1 = 0.0001658	0.000739	–
308.15 K, m1 = 0.0001747	0.000759	–
308.15 K, m1 = 0.0001837	0.000778	–
308.15 K, m1 = 0.0001926	0.000798	–
308.15 K, m1 = 0.0002015	0.000818	–
308.15 K, m1 = 0.0002105	0.000839	29.16
308.15 K, m1 = 0.0002194	0.000858	–
308.15 K, m1 = 0.0002284	0.000878	–
308.15 K, m1 = 0.0002373	0.000898	–
308.15 K, m1 = 0.0002463	0.000917	–
308.15 K, m1 = 0.0002552	0.000937	–
308.15 K, m1 = 0.0002631	–	29.02
308.15 K, m1 = 0.0002642	0.000957	–
308.15 K, m1 = 0.0002731	0.000977	–
308.15 K, m1 = 0.0002821	0.000997	–
308.15 K, m1 = 0.000291	0.00102	–
308.15 K, m1 = 0.0005262	–	28.71
308.15 K, m1 = 0.001053	–	28.26
308.15 K, m1 = 0.001579	–	28.07
